Experiment [1] has as its system CT1 primary colon tumor xenograft. Briefly: CT1 primary colon tumor xenograft, combination with Irinotecan. To be noted: 10 mg/kg IP once per day for the first 5 days. In kind it is in vivo, SCID beige female mice. The protocol: Single agent in vivo efficacy of murine antibodies 14F7.1, 18G7.1, 5B10.1, 14A8.1, 1B3.5 was evaluated in a primary colon tumor xenograft model system using CT1 primary xenograft cells. CT1 is a primary colorectal (CRC) in vivo xenograft tumor established from a fresh CRC patient tumor sample. The mutational status was determined by Ion Torrent deep sequencing to identify oncogene mutations. Approximately 5-15% of CT1 tumors express GPR49. SCID beige female mice were inoculated with CT1 tumor cells and monitored for tumor growth. Mice were randomized at day 0 into groups of 10 when mean tumor volume reached 175 mm^3. Chemotherapeutic Irinotecan was administered IP at 10 mg/kg once per day for the first 5 days. The antibodies were administered intraperitoneally (i.p.) at 15 mg/kg administered twice weekly for 4 weeks. Tumors were measured at the indicated intervals post-inoculation for total tumor volume.

The test system of experiment [2] is colon tumor cells re-implanted in secondary recipients. Briefly: Secondary transplant tumor formation after GPR49 mAb+irinotecan. The experiment is classed as in vivo, mice. To be noted: 140 day follow-up. From the text: Isolated tumor cells from control or GPR49 mAb+irinotecan treated tumors from the in vivo study outlined in Example 3 were harvested, pooled, dissociated and re-implanted in a limiting dilution secondary transplant assay to measure cancer stem cell frequency. For each treatment group, 8 mice were implanted with 10, 30, 100 cells. […]

Experiment [3] has as its target T1, GPR49-Fc (Homo sapiens, UniProt O75473).
T1 construct: FLAG (C)
In words: Solution affinity surface plasmon resonance of RSPO-1 on GPR49-Fc. As to conditions: initial binding rates, GPR49-Fc competition. The protocol: Methods: Binding of RSPO to GPR49 was analyzed using solution affinity surface plasmon resonance (Day E S, et al. Biochemistry. 2005 Feb. 15; 44(6):1919-31). The method utilizes conditions of so-called “mass-transport-limited” binding, in which the initial rate of ligand binding (protein binding to the sensor chip) is proportional to the concentration of ligand in solution (BIApplications Handbook (1994) Chapter 6: Concentration measurement, pp 6-1-6-10, Pharmacia Biosensor AB). Under these conditions, binding of the soluble analyte (protein flowing over chip surface) to the immobilized protein on the chip is fast compared to the diffusion of the analyte into the dextran matrix on the chip surface. Therefore, the diffusion properties of the analyte and the concentration of analyte in solution flowing over the chip surface determine the rate at which analyte binds to the chip. In this experiment, the concentration of free RSPO-1 in solution is determined by the initial rate of binding to a CM5 Biacore chip containing immobilized GPR49-Fc. Into these RSPO-1 solutions were titrated the competing GPR49-Fc.
Background: In SPR one partner is held on a chip, and binding of the other changes the refractive index at the surface.

T1 sequence (O75473 with tags, fused parts or gaps): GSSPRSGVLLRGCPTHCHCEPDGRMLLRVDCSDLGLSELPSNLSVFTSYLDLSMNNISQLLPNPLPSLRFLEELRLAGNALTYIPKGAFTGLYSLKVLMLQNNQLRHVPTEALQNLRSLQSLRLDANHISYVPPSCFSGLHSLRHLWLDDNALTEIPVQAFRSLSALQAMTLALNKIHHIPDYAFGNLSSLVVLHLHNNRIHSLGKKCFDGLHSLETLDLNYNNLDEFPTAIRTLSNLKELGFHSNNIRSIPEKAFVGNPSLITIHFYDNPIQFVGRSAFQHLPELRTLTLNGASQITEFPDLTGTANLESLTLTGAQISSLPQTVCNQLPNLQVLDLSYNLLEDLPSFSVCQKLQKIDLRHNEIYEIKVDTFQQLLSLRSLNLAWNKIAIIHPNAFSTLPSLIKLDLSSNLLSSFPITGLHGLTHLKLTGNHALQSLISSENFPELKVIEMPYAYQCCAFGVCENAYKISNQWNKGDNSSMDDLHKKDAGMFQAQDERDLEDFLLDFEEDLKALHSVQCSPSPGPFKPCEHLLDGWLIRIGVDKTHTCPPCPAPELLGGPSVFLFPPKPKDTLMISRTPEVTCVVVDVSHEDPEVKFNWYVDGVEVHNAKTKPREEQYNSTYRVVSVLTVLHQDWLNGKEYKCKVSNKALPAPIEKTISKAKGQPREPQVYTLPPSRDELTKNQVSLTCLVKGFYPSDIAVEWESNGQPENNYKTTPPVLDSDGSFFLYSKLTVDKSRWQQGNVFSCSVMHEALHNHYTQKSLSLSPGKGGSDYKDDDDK

Regarding `CCc1c2c(nc3ccc(OC(=O)N4CCC(N5CCCCC5)CC4)cc13)-c1cc3c(c(=O)n1C2)COC(=O)[C@]3(O)CC` [Irinotecan], in experiment [1], the “tumor inhibition, Irinotecan alone” value is recorded as 45%. This molecule also yielded an average tumor size in experiment [2] of 1729 mm^3.

B1: R-spondin 1: R-spondin family Wnt-pathway modulator protein, purchased from R& D systems (protein, UniProt Q2MKA7 21-263, looked up)
R-spondin-1: SRGIKGKRQRRISAEGSQACAKGCELCSEVNGCLKCSPKLFILLERNDIRQVGVCLPSCPPGYFDARNPDMNKCIKCKIEHCEACFSHNFCTKCKEGLYLHKGRCYPACPEGSSAANGTMECSSPAQCEMSEWSPWGPCSKKQQLCGFRRGSEERTRRVLHAPVGDHAACSDTKETRRCTVRRVPCPEGQKRRKGGQGRRENANRNLARKESKEAGAGSRRRKGQQQQQQQGTVGPLTSAGPA
B1: the binding profile result in experiment [3] is reported as “bi-phasic binding profile”.

The values are drawn from patent US10598653B2, “Methods of blocking cancer stem cell growth” (Bionomics Inc., priority 2011, dated 2020).
